Values of other authors, collected in patent US20040192587A9, “Zinc formulations as a prophylactic treatment for the common cold” (priority 2002, published 2004).

Key:
rhinovirus common colds = conditions: large prophylactic oral doses, as much as 2 grams per day
common cold = conditions: tablet with about 23 mg elemental zinc dissolved in the mouth every two hours during 12 to 16 waking hours; sixty-five humans; untreated group 10.8 days

| Compound | frequency of acquisition of rhinovirus common colds or amount of virus shedding (rhinovirus common colds) | duration of colds (common cold) |
| --- | --- | --- |
| O=C1O[C@H]([C@@H](O)CO)C(O)=C1O [vitamin C] | have not altered | – |
| zinc gluconate | – | 3.9 days |
